Measurements from patent US6362369B1, “Phthalic acid diamide derivatives fluorine-containing aniline compounds as starting material, agricultural and horticultural insecticides, and a method for application of the insecticides” (Nihon Nohyaku Co., Ltd., priority 1997, dated 2002).

What was measured:
Format in all cases: in vivo
[1] = tested on: rice leafroller (Cnaphalocrocis medinalis); assay: Insecticidal effect on rice leafroller (Test Example 3); details: 500 ppm, 25° C., humidity 70%; for Insecticidal effect (Test Example 3), judged from mortality / Insecticidal effect on rice leafroller (Test Example 3), judged grade: rice lamina dip; for Insecticidal effect (Test Example 3), judged from mortality: 4 days after inoculation; for Insecticidal effect, Test Example 3: rice lamina immersed; for Insecticidal effect, Test Example 3 / Insecticidal effect on rice leafroller (Test Example 3), judged grade: four days after inoculation; for Insecticidal effect on rice leafroller (Test Example 3), judged grade: third-instar larvae
How it was run: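 Groups of 10 third-instar larvae, in triplicate, are placed on air-dried lamina resting on wet filter paper. Incubation runs four days at 25° C with 70% humidity before survivors and dead are tallied.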

[2] = tested on: common cutworm (Spodoptera Litura); assay: Insecticidal effect on common cutworm (Test Example 2); details: 500 ppm, 25° C.; for Insecticidal effect (Test Example 2), judged from mortality / Insecticidal effect on common cutworm (Test Example 2), judged grade: cabbage leaf dip; for Insecticidal effect (Test Example 2), judged from mortality: 8 days after inoculation; for Insecticidal effect, Test Example 2: cabbage leaf immersed; for Insecticidal effect, Test Example 2 / Insecticidal effect on common cutworm (Test Example 2), judged grade: eight days after inoculation; for Insecticidal effect on common cutworm (Test Example 2), judged grade: second-instar larvae
How it was run: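 Second-instar larvae placed in 9 cm Petri dishes with air-dried treated material, held at 25 °C. Dead and live insects counted 8 days after inoculation; mortality calculated and scored against a set criterion. Triplicate groups of 10 insects.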

[3] = tested on: diamondback moth (Plutella xylostella); assay: Insecticidal effect on diamondback moth (Test Example 1); details: for Insecticidal effect (Test Example 1), judged from mortality / Insecticidal effect, Test Example 1: diamondback moth; for Insecticidal effect (Test Example 1), judged from mortality: judged by the criterion of Test Example 1; for Insecticidal effect on diamondback moth (Test Example 1), judged grade: mortality judged according to the criterion shown in Test Example 1
How it was run: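 Eggs laid by adult moths on Chinese cabbage seedlings, which were immersed in test solution, air-dried and kept at 25 °C. Hatched insects counted 6 days after immersion and mortality calculated, with effect graded by criterion; triplicate groups of 10 insects.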

[4] = third-instar larvae of rice leafroller
[5] = second-instar larvae of common cutworm
[6] = rice leafroller third-instar larvae
[7] = common cutworm second-instar larvae
[8] = mortality judged by criterion of Test Example 1
[9] = judged by the mortality criterion of Test Example 1

Cc1cc(C(F)(C(F)(F)F)C(F)(F)F)ccc1NC(=O)c1cccc(I)c1C(=O)NC(C)c1ccccn1 (stereo not drawn) [compound 1773]
Insecticidal effect (Test Example 3), judged from mortality [1, 4]: A (100)
Insecticidal effect (Test Example 2), judged from mortality [2, 5]: A (100)
Insecticidal effect (Test Example 1), judged from mortality [3]: A (100)

CC(C)NC(=O)c1c(I)cccc1C(=O)Nc1ccc2c(c1)OC(F)(F)C(F)O2 (stereo not drawn) [compound 1161]
Insecticidal effect, Test Example 3 [1, 6]: A (100)
Insecticidal effect, Test Example 2 [2, 7]: D (79-50)
Insecticidal effect, Test Example 1 [3, 8]: A (100)

Cc1cc(OC(F)(F)C(F)F)ccc1NC(=O)c1cccc(Cl)c1C(=O)NC(C)C [Compound No. 141, 3-chloro-N^1-[4-(1,1,2,2-tetrafluoroethoxy)-2-methylphenyl]-N^2-isopropylphthalic acid diamide]
Insecticidal effect, Test Example 3 [1, 4]: A (100)
Insecticidal effect, Test Example 2 [2, 5]: A (100)
Insecticidal effect, Test Example 1 [3, 9]: A (100)

Cc1cc(Cl)ccc1NC(=O)c1ccccc1C(=O)NC(C)(C)C [compound 927]
Insecticidal effect on rice leafroller (Test Example 3), judged grade [1]: A (100)
Insecticidal effect on common cutworm (Test Example 2), judged grade [2]: A (100)
Insecticidal effect on diamondback moth (Test Example 1), judged grade [3]: A (100)

Cc1cc(C(F)(F)C(F)(F)F)ccc1NC(=O)c1cccc(Cl)c1C(=O)NC(C)(C)C#Cc1cccnc1 [compound 1590]
Insecticidal effect (Test Example 3), judged from mortality [1, 4]: A (100)
Insecticidal effect (Test Example 2), judged from mortality [2, 5]: A (100)
Insecticidal effect (Test Example 1), judged from mortality [3]: A (100)

CC(C)NC(=O)c1c(C(=O)Nc2ccc3c(c2)OC(F)(F)C(F)(F)O3)cccc1[N+](=O)[O-] [compound 976]
Insecticidal effect, Test Example 3 [1, 6]: A (100)
Insecticidal effect, Test Example 2 [2, 7]: A (100)
Insecticidal effect, Test Example 1 [3, 8]: A (100)

C=CC(C)(C)NC(=O)c1c(Cl)cccc1C(=O)Nc1ccc(C(F)(F)C(F)(F)F)cc1C [compound 1569]
Insecticidal effect (Test Example 3), judged from mortality [1, 4]: A (100)
Insecticidal effect (Test Example 2), judged from mortality [2, 5]: A (100)
Insecticidal effect (Test Example 1), judged from mortality [3]: A (100)

Cc1cc(C(F)(C(F)(F)F)C(F)(F)F)ccc1NC(=O)c1ccc(I)cc1C(=O)NC(C)C [compound 1250]
Insecticidal effect, Test Example 3 [1, 6]: A (100)
Insecticidal effect, Test Example 2 [2, 7]: A (100)
Insecticidal effect, Test Example 1 [3, 8]: A (100)

Cc1ccc(Cl)cc1NC(=O)c1cccc([N+](=O)[O-])c1C(=O)NC(C)C [compound 665]
Insecticidal effect on rice leafroller (Test Example 3), judged grade [1]: B (99-90)
Insecticidal effect on common cutworm (Test Example 2), judged grade [2]: A (100)
Insecticidal effect on diamondback moth (Test Example 1), judged grade [3]: A (100)

CC(C)(C)NC(=O)c1c(I)cccc1C(=O)Nc1cc2c(cc1Cl)OC(F)(F)C(F)(F)O2 [compound 1645]
Insecticidal effect (Test Example 3), judged from mortality [1, 4]: A (100)
Insecticidal effect (Test Example 2), judged from mortality [2, 5]: A (100)
Insecticidal effect (Test Example 1), judged from mortality [3]: A (100)

Cc1cc(Oc2ncc(C(F)(F)F)cc2Cl)ccc1NC(=O)c1cccc(F)c1C(=O)NC(C)C [compound 524]
Insecticidal effect on rice leafroller (Test Example 3), judged grade [1]: A (100)
Insecticidal effect on common cutworm (Test Example 2), judged grade [2]: A (100)
Insecticidal effect on diamondback moth (Test Example 1), judged grade [3]: A (100)

Cc1ccc(Cl)cc1NC(=O)c1cccc(Br)c1C(=O)NC(C)C [compound 268]
Insecticidal effect, Test Example 3 [1, 4]: A (100)
Insecticidal effect, Test Example 2 [2, 5]: A (100)
Insecticidal effect, Test Example 1 [3, 9]: A (100)

CC(C)NC(=O)c1c(I)cccc1C(=O)Nc1ccc(C(F)(C(F)(F)F)C(F)(F)F)cc1Cl [compound 1722]
Insecticidal effect (Test Example 3), judged from mortality [1, 4]: A (100)
Insecticidal effect (Test Example 2), judged from mortality [2, 5]: A (100)
Insecticidal effect (Test Example 1), judged from mortality [3]: A (100)

CC(C)NC(=O)c1c(C(=O)Nc2ccc(C(F)(C(F)(F)F)C(F)(F)F)cc2)cccc1[N+](=O)[O-] [compound 610]
Insecticidal effect on rice leafroller (Test Example 3), judged grade [1]: C (89-80)
Insecticidal effect on common cutworm (Test Example 2), judged grade [2]: A (100)
Insecticidal effect on diamondback moth (Test Example 1), judged grade [3]: A (100)

CC(C)NC(=O)c1c(Cl)cccc1C(=O)Nc1ccc2c(c1)OC(F)(F)C(F)O2 (stereo not drawn) [compound 1163]
Insecticidal effect, Test Example 3 [1, 6]: A (100)
Insecticidal effect, Test Example 2 [2, 7]: A (100)
Insecticidal effect, Test Example 1 [3, 8]: A (100)

CCCCCCNC(=O)c1c(I)cccc1C(=O)Nc1ccc(C(F)(F)C(F)(F)F)cc1C [compound 949]
Insecticidal effect, Test Example 3 [1, 6]: A (100)
Insecticidal effect, Test Example 2 [2, 7]: A (100)
Insecticidal effect, Test Example 1 [3, 8]: A (100)

Cc1cc(OCC(F)(F)C(F)F)ccc1NC(=O)c1c(Cl)cccc1C(=O)NC(C)C [compound 230]
Insecticidal effect, Test Example 3 [1, 4]: A (100)
Insecticidal effect, Test Example 2 [2, 5]: C (89-80)
Insecticidal effect, Test Example 1 [3, 9]: A (100)

CC(C)NC(=O)c1c(C(=O)Nc2ccc(OC(F)(F)C(F)OC(F)(F)C(F)(F)C(F)(F)F)cc2)cccc1[N+](=O)[O-] (stereo not drawn) [compound 619]
Insecticidal effect on rice leafroller (Test Example 3), judged grade [1]: A (100)
Insecticidal effect on common cutworm (Test Example 2), judged grade [2]: A (100)
Insecticidal effect on diamondback moth (Test Example 1), judged grade [3]: A (100)

Cc1cc(C(F)(F)C(F)(F)C(F)(F)C(F)(F)F)ccc1NC(=O)c1cccc([N+](=O)[O-])c1C(=O)NC(C)C [compound 686]
Insecticidal effect on rice leafroller (Test Example 3), judged grade [1]: A (100)
Insecticidal effect on common cutworm (Test Example 2), judged grade [2]: A (100)
Insecticidal effect on diamondback moth (Test Example 1), judged grade [3]: A (100)

CCC(C)NC(=O)c1c(I)cccc1C(=O)Nc1ccc(C(F)(F)C(F)(F)F)cc1C (stereo not drawn) [compound 1007]
Insecticidal effect, Test Example 3 [1, 6]: A (100)
Insecticidal effect, Test Example 2 [2, 7]: A (100)
Insecticidal effect, Test Example 1 [3, 8]: A (100)

CCCNC(=O)c1c(Cl)cccc1C(=O)Nc1ccc(C(F)(F)C(F)(F)F)cc1F [compound 1491]
Insecticidal effect (Test Example 3), judged from mortality [1, 4]: A (100)
Insecticidal effect (Test Example 2), judged from mortality [2, 5]: A (100)
Insecticidal effect (Test Example 1), judged from mortality [3]: A (100)

Cc1ccc(Cl)cc1NC(=O)c1cccc(Cl)c1C(=O)NC(C)C [compound 120]
Insecticidal effect, Test Example 3 [1, 4]: A (100)
Insecticidal effect, Test Example 2 [2, 5]: D (79-50)
Insecticidal effect, Test Example 1 [3, 9]: A (100)

CCNC(=O)c1cccc(I)c1C(=O)Nc1ccc(C(F)(C(F)(F)F)C(F)(F)F)cc1C [compound 1074]
Insecticidal effect, Test Example 3 [1, 6]: A (100)
Insecticidal effect, Test Example 2 [2, 7]: A (100)
Insecticidal effect, Test Example 1 [3, 8]: A (100)

Cc1cc(C(F)(F)C(F)(F)F)ccc1NC(=O)c1cccc(Cl)c1C(=O)NC(C)(C)c1ccc(Cl)cc1 [compound 1484]
Insecticidal effect (Test Example 3), judged from mortality [1, 4]: A (100)
Insecticidal effect (Test Example 2), judged from mortality [2, 5]: A (100)
Insecticidal effect (Test Example 1), judged from mortality [3]: A (100)

Cc1cc(C(F)(F)C(F)(F)F)ccc1NC(=O)c1ccc(I)cc1C(=O)NC(C)C [compound 1202]
Insecticidal effect, Test Example 3 [1, 6]: A (100)
Insecticidal effect, Test Example 2 [2, 7]: A (100)
Insecticidal effect, Test Example 1 [3, 8]: A (100)

Cc1cc(C(F)(F)C(F)(Cl)Cl)ccc1NC(=O)c1ccccc1C(=O)NC(C)C [compound 64]
Insecticidal effect, Test Example 3 [1, 4]: A (100)
Insecticidal effect, Test Example 2 [2, 5]: B (99-90)
Insecticidal effect, Test Example 1 [3, 9]: A (100)

CCCNC(=O)c1c(I)cccc1C(=O)Nc1ccc(C(F)(C(F)(F)F)C(F)(F)F)cc1C [compound 1075]
Insecticidal effect, Test Example 3 [1, 6]: A (100)
Insecticidal effect, Test Example 2 [2, 7]: A (100)
Insecticidal effect, Test Example 1 [3, 8]: A (100)

Cc1cc(I)ccc1NC(=O)c1cccc([N+](=O)[O-])c1C(=O)NC(C)C [compound 673]
Insecticidal effect on rice leafroller (Test Example 3), judged grade [1]: D (79-50)
Insecticidal effect on common cutworm (Test Example 2), judged grade [2]: D (79-50)
Insecticidal effect on diamondback moth (Test Example 1), judged grade [3]: A (100)

CC(C)NC(=O)c1c(I)cccc1C(=O)Nc1ccc2c(c1)OC(F)C(F)(F)O2 (stereo not drawn) [compound 1148]
Insecticidal effect, Test Example 3 [1, 6]: A (100)
Insecticidal effect, Test Example 2 [2, 7]: A (100)
Insecticidal effect, Test Example 1 [3, 8]: A (100)

CSc1cccc(C(=O)Nc2ccc(OC(F)F)cc2C)c1C(=O)NC(C)C [compound 783]
Insecticidal effect on rice leafroller (Test Example 3), judged grade [1]: A (100)
Insecticidal effect on common cutworm (Test Example 2), judged grade [2]: A (100)
Insecticidal effect on diamondback moth (Test Example 1), judged grade [3]: A (100)

COc1ccc(NC(=O)c2cccc(I)c2C(=O)NC(C)C)c(C)c1C [compound 378]
Insecticidal effect, Test Example 3 [1, 4]: A (100)
Insecticidal effect, Test Example 2 [2, 5]: D (79-50)
Insecticidal effect, Test Example 1 [3, 9]: A (100)

CCN(CC)C(=O)c1c(C(=O)Nc2ccc(OC(F)(F)F)cc2C)cccc1[N+](=O)[O-] [compound 1118]
Insecticidal effect, Test Example 3 [1, 6]: A (100)
Insecticidal effect, Test Example 2 [2, 7]: A (100)
Insecticidal effect, Test Example 1 [3, 8]: A (100)

Cc1cc(Br)ccc1NC(=O)c1cccc(Br)c1C(=O)NC(C)C [compound 272]
Insecticidal effect, Test Example 3 [1, 4]: A (100)
Insecticidal effect, Test Example 2 [2, 5]: A (100)
Insecticidal effect, Test Example 1 [3, 9]: A (100)

Cc1cc(C(F)(F)C(F)(F)C(F)(F)C(F)(F)F)ccc1NC(=O)c1cccc(Cl)c1C(=O)NC(C)C [compound 132]
Insecticidal effect, Test Example 3 [1, 4]: A (100)
Insecticidal effect, Test Example 2 [2, 5]: A (100)
Insecticidal effect, Test Example 1 [3, 9]: A (100)

CC(C)NC(=O)c1c(Cl)cccc1C(=O)Nc1ccc(OC(F)(F)F)cc1Cl [compound 135]
Insecticidal effect, Test Example 3 [1, 4]: A (100)
Insecticidal effect, Test Example 2 [2, 5]: A (100)
Insecticidal effect, Test Example 1 [3, 9]: A (100)
